Measurements taken from ChEMBL document CHEMBL5537133, “Rational design and optimization of novel 4-methyl quinazoline derivatives as PI3K/HDAC dual inhibitors with benzamide as zinc binding moiety for the treatment of acute myeloid leukemia” (Eur J Med Chem, 2024).
Blank lines part the entries; values can stand above or below the compound they belong to.

Tests used:
[1] = tested on: MV4-11; assay: Antiproliferative activity against human MV4-11 cells assessed as reduction in cell viability incubated for 72 hrs by CCK-8 assay; type: functional, cell-based; conditions: MV4-11, 72 h
[2] = molecular target: Phosphatidylinositol 4,5-bisphosphate 3-kinase catalytic subunit beta isoform (Homo sapiens, UniProt P42338); assay: Inhibition of PI3Kbeta (unknown origin) using PIP2 as substrate incubated for 1 hr in presence of ATP by ADP-Glo assay
[3] = molecular target: Phosphatidylinositol 4,5-bisphosphate 3-kinase catalytic subunit gamma isoform (Homo sapiens, UniProt P48736); assay: Inhibition of PI3Kgamma (unknown origin) using PIP2 as substrate incubated for 1 hr in presence of ATP by ADP-Glo assay
[4] = molecular target: Phosphatidylinositol 4,5-bisphosphate 3-kinase catalytic subunit delta isoform (Homo sapiens, UniProt O00329); assay: Inhibition of PI3Kdelta (unknown origin) using PIP2 as substrate incubated for 1 hr in presence of ATP by ADP-Glo assay
[5] = molecular target: Serine/threonine-protein kinase mTOR (Homo sapiens, UniProt P42345); assay: Inhibition of N-terminal FLAG-tagged recombinant human mTOR (1362 to end residues) using ULight-4E-BP1 (Thr37/46) peptide as substrate incubated for 30 mins in presence of ATP by LANCE ultra assay
[6] = molecular target: Histone deacetylase 2 (Homo sapiens, UniProt Q92769); assay: Inhibition of C-terminal His6-FLAG-tagged human recombinant HDAC2 (1 to 488 residues) expressed in Sf9 cells using Ac-peptide as substrate preincubated for 15 mins followed by substrate addition and measured after 1 hr by plate reader analysis
[7] = molecular target: Histone deacetylase 3 (Homo sapiens, UniProt O15379); assay: Inhibition of HDAC3 (unknown origin)
Chain of Histone deacetylase 3 (O15379 whole entry): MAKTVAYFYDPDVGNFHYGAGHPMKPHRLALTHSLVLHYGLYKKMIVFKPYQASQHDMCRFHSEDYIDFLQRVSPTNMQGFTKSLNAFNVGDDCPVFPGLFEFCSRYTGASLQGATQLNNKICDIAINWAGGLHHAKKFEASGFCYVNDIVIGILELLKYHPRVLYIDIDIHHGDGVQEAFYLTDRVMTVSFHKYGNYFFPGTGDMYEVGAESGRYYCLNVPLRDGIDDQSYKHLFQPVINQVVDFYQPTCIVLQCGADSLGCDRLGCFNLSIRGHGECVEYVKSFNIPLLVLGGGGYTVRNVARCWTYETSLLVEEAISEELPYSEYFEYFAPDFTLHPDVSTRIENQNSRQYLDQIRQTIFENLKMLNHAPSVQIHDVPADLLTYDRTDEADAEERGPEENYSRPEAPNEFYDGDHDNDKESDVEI

[8] = molecular target: Histone deacetylase 4 (Homo sapiens, UniProt P56524); assay: Inhibition of N-terminal GST-tagged and C-terminal His-tagged human HDAC4 (627 to 1084 end residues) expressed in baculovirus infected Sf9 cells using Ac-peptide as substrate incubated for 1 hr by plate reader analysis
Chain of Histone deacetylase 4 (P56524 whole entry): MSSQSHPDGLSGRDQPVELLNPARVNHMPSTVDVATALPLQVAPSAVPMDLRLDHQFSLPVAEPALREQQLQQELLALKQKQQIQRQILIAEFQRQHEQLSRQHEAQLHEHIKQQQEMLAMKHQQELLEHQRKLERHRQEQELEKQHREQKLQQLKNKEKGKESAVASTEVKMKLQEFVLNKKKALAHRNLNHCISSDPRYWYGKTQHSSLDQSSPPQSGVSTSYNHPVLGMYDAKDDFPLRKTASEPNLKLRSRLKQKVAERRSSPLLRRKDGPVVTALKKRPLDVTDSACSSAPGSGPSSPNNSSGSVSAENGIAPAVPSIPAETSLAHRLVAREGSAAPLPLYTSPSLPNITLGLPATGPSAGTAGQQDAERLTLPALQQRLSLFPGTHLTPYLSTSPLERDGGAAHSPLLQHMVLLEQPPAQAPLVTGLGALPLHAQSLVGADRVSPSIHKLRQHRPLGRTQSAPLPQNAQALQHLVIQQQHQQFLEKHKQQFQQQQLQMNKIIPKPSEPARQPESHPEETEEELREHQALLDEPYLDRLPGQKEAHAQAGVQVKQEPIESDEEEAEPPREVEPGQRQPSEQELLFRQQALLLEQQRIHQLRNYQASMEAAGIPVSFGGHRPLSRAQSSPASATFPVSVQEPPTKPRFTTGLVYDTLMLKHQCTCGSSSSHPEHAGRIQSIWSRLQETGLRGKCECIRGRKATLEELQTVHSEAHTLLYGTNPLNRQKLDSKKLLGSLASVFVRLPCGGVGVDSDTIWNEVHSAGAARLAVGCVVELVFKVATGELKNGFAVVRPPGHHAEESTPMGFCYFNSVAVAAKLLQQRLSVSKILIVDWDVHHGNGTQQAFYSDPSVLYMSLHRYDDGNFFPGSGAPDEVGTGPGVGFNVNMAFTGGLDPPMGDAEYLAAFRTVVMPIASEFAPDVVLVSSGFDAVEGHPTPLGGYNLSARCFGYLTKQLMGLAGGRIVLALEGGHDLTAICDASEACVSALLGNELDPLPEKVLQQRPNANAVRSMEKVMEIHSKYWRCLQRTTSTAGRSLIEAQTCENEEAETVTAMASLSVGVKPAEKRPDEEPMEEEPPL

[9] = molecular target: Protein deacetylase HDAC6 (Homo sapiens, UniProt Q9UBN7); assay: Inhibition of HDAC6 (unknown origin)
Chain of Protein deacetylase HDAC6 (Q9UBN7 whole entry): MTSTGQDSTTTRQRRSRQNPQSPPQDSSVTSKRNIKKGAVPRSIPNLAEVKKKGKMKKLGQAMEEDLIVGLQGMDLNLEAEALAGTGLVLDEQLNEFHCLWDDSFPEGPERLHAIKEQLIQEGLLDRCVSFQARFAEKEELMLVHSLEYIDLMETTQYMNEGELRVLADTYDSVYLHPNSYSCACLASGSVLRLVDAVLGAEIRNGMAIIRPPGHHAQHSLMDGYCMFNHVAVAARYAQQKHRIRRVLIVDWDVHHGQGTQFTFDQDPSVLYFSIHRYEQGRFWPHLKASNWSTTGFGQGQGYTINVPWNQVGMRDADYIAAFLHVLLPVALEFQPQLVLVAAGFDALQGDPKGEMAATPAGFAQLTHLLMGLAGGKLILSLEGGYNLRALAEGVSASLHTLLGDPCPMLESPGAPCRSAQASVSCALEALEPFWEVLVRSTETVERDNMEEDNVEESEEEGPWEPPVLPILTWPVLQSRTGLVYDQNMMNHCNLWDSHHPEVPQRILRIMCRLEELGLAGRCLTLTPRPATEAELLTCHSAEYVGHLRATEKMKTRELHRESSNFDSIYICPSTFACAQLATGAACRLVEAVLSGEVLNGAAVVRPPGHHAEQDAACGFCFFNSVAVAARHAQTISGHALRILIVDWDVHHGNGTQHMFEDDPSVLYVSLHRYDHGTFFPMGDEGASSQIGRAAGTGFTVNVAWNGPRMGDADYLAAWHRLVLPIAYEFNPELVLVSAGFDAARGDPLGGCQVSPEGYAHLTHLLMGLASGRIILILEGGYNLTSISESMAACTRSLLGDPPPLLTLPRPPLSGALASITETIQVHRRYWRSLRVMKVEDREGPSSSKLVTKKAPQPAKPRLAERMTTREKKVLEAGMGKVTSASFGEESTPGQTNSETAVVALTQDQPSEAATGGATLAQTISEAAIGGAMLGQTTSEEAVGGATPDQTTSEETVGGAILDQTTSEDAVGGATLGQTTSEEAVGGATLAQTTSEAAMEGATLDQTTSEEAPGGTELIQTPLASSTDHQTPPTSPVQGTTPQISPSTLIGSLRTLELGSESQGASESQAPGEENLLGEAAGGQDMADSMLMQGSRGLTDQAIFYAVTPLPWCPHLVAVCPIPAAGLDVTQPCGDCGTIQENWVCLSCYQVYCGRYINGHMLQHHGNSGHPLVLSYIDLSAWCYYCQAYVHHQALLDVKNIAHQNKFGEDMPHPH

[10] = molecular target: Histone deacetylase 8 (Homo sapiens, UniProt Q9BY41); assay: Inhibition of C-terminal His-tagged human recombinant HDAC8 (1 to 377 end residues) expressed in Sf9 cells using Ac-peptide as substrate incubated for 1 hr by plate reader analysis
Chain of Histone deacetylase 8 (Q9BY41 whole entry): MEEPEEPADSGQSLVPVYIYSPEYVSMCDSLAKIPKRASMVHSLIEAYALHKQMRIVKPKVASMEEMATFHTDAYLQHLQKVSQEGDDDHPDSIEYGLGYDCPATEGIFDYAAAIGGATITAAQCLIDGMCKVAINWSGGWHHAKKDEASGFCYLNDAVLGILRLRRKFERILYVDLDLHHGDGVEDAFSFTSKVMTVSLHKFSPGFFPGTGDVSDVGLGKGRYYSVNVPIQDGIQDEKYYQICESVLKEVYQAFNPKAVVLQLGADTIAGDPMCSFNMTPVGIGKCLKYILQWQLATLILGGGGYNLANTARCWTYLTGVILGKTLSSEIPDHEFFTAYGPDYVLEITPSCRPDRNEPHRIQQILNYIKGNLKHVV

[11] = molecular target: Histone deacetylase 11 (Homo sapiens, UniProt Q96DB2); assay: Inhibition of human HDAC11 (1 to 347 end residues) expressed in Sf9 cells using Ac-peptide as substrate incubated for 1 hr by plate reader analysis
Chain of Histone deacetylase 11 (Q96DB2 whole entry): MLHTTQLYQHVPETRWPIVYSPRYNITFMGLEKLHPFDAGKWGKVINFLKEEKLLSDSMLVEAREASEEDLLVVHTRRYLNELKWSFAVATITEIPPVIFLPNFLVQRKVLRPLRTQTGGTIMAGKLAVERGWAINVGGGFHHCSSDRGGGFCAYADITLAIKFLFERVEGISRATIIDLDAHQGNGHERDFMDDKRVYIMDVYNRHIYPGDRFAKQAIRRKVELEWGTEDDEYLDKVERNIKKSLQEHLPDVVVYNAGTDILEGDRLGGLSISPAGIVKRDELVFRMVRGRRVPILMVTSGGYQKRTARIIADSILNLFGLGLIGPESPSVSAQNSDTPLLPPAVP

[12] = tested on: NB-4; assay: Antiproliferative activity against human NB4 cells assessed as reduction in cell viability incubated for 72 hrs by CCK-8 assay; type: functional, cell-based; conditions: NB-4, 72 h
[13] = tested on: HL-60; assay: Antiproliferative activity against human HL-60 cells assessed as reduction in cell viability incubated for 72 hrs by CCK-8 assay; type: functional, cell-based; conditions: HL-60, 72 h
[14] = tested on: DOHH-2; assay: Antiproliferative activity against human DOHH-2 cells assessed as reduction in cell viability incubated for 72 hrs by CCK-8 assay; type: functional, cell-based; conditions: DOHH-2, 72 h
[15] = tested on: Ramos; assay: Antiproliferative activity against human Ramos cells assessed as reduction in cell viability incubated for 72 hrs by CCK-8 assay
[16] = tested on: Raji; assay: Antiproliferative activity against human Raji cells assessed as reduction in cell viability incubated for 72 hrs by CCK-8 assay; type: functional, cell-based
[17] = Antiproliferative activity against human MINO cells assessed as reduction in cell viability incubated for 72 hrs by CCK-8 assay
[18] = tested on: L1210; assay: Antiproliferative activity against mouse L1210 cells assessed as reduction in cell viability incubated for 72 hrs by CCK-8 assay; type: functional, cell-based; conditions: L1210, 72 h
[19] = tested on: Friend leukemia cell line; assay: Antiproliferative activity against mouse Friend leukemia cell line assessed as reduction in cell viability incubated for 72 hrs by CCK-8 assay; type: functional, cell-based
[20] = tested on: BaF3; assay: Antiproliferative activity against mouse BaF3 cells assessed as reduction in cell viability incubated for 72 hrs by CCK-8 assay; type: functional, cell-based; conditions: BaF3, 72 h
[21] = tested on: EL4; assay: Antiproliferative activity against mouse EL4 cells assessed as reduction in cell viability incubated for 72 hrs by CCK-8 assay; type: functional, cell-based; conditions: EL4, 72 h
[22] = Terminal half life in ICR mouse at 6 mg/kg, iv measured after 24 hrs by LC-MS/MS analysis; type: ADME, organism-based; conditions: in vivo
[23] = Terminal half life in ICR mouse at 60 mg/kg, po measured after 24 hrs by LC-MS/MS analysis; type: ADME, organism-based; conditions: in vivo, read-out: beta t1/2 (converted)
[24] = Tmax in ICR mouse at 60 mg/kg, po measured after 24 hrs by LC-MS/MS analysis; type: ADME, organism-based; conditions: in vivo
[25] = Cmax in ICR mouse at 6 mg/kg, iv measured after 24 hrs by LC-MS/MS analysis; type: ADME, organism-based; conditions: in vivo
[26] = Cmax in ICR mouse at 60 mg/kg, po measured after 24 hrs by LC-MS/MS analysis; type: ADME, organism-based; conditions: in vivo
[27] = AUC(0 to t) in ICR mouse at 6 mg/kg, iv measured after 24 hrs by LC-MS/MS analysis; type: ADME, organism-based; conditions: in vivo
[28] = AUC(0 to t) in ICR mouse at 60 mg/kg, po measured after 24 hrs by LC-MS/MS analysis; type: ADME, organism-based; conditions: in vivo
[29] = AUC(0 to infinity) in ICR mouse at 6 mg/kg, iv measured after 24 hrs by LC-MS/MS analysis; type: ADME, organism-based; conditions: in vivo
[30] = AUC(0 to infinity) in ICR mouse at 60 mg/kg, po measured after 24 hrs by LC-MS/MS analysis; type: ADME, organism-based; conditions: in vivo, po, 60 mg/kg, 24 h
[31] = tested on: MV4-11; assay: Antitumor activity against human MV4-11 cells xenografted in BALB/c nude mouse assessed as tumor growth inhibition at 10 mg/kg, ip administered once daily for 14 days relative to control; type: functional; conditions: MV4-11, 336 h, time 14 day, read-out: TGI
[32] = tested on: MV4-11; assay: Antitumor activity against human MV4-11 cells xenografted in BALB/c nude mouse assessed as tumor growth inhibition at 20 mg/kg, ip administered once daily for 14 days relative to control; type: functional; conditions: MV4-11, 336 h, time 14 day, read-out: TGI
[33] = tested on: MV4-11; assay: Antitumor activity against human MV4-11 cells xenografted in BALB/c nude mouse assessed as tumor growth inhibition at 60 mg/kg, po administered once daily for 14 days relative to control; type: functional; conditions: MV4-11, 336 h, time 14 day, read-out: TGI
[34] = Toxicity in BALB/c nude mouse xenografted with human MV4-11 cells assessed as change in body weight at 10 to 20 mg/kg, ip administered only daily for 14 days and measured twice a week; type: organism-based; conditions: in vivo, 336 h, dose 10-20 mg/kg, time 14 day
[35] = Toxicity in BALB/c nude mouse xenografted with human MV4-11 cells assessed as change in body weight at 60 mg/kg, po administered only daily for 14 days and measured twice a week; type: organism-based; conditions: in vivo, 336 h, time 14 day
[36] = molecular target: Phosphatidylinositol 4,5-bisphosphate 3-kinase catalytic subunit alpha isoform (Homo sapiens, UniProt P42336)
Chain of Phosphatidylinositol 4,5-bisphosphate 3-kinase catalytic subunit alpha isoform (P42336 whole entry, canonical isoform): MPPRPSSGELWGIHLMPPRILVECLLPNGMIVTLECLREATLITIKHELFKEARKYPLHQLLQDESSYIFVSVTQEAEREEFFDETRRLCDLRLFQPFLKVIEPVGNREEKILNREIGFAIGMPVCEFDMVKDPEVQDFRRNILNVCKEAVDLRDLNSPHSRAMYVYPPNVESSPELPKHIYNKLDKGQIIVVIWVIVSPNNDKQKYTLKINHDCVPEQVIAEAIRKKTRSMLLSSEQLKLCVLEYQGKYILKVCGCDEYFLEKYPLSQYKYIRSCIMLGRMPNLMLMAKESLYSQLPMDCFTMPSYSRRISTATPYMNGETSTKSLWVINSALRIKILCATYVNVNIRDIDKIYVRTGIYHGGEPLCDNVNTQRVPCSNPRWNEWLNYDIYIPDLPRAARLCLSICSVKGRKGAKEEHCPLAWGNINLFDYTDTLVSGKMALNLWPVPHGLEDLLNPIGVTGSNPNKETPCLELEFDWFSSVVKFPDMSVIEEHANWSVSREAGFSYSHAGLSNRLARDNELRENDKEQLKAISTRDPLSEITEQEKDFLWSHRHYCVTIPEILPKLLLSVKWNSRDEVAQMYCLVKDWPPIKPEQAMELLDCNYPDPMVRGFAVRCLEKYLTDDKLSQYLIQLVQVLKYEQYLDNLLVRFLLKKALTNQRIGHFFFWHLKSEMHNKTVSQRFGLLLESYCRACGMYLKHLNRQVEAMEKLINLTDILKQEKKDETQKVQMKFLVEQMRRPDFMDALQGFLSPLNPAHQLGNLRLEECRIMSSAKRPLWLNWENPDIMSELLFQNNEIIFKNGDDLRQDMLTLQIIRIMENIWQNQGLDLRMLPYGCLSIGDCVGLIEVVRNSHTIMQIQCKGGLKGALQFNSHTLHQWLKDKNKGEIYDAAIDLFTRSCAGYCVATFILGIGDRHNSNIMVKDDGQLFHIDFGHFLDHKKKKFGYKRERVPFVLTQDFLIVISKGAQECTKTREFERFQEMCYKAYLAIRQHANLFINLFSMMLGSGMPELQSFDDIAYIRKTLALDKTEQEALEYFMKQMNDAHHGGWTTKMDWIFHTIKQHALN
Description: Inhibition of PI3Kalpha (unknown origin) using PIP2 as substrate incubated for 1 hr in presence of ATP by ADP-Glo assay

[37] = molecular target: Histone deacetylase 1 (Homo sapiens, UniProt Q13547)
Chain of Histone deacetylase 1 (Q13547 whole entry): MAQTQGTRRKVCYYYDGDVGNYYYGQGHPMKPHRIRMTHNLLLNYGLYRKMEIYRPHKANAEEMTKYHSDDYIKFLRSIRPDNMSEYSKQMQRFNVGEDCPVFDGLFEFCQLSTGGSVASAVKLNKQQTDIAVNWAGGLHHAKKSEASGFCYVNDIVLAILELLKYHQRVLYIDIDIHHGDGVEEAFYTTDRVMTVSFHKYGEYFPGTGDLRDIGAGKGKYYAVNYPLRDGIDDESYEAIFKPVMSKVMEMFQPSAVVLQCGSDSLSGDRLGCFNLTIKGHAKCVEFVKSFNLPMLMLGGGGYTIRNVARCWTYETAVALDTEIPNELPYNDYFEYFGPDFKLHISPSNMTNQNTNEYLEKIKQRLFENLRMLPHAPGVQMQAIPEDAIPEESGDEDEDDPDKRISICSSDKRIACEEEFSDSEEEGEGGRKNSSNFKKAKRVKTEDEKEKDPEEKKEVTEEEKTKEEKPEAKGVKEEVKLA
Description: Inhibition of C-terminal 6His-FLAG-tagged human recombinant HDAC1 (1 to 482 residues) expressed in Sf9 cells using Ac-peptide as substrate preincubated for 15 mins followed by substrate addition and measured after 1 hr by plate reader analysis

IC50 [1]: 4 nM | IC50 [2]: 0.66 nM | IC50 [3]: 1.8 nM | IC50 [4]: 1.9 nM | IC50 [5]: 3.4 nM | IC50 [6]: 181 nM | IC50 [7]: 899 nM | IC50 [8]: > 10000 nM | IC50 [9]: > 10000 nM | IC50 [10]: > 10000 nM | IC50 [11]: > 10000 nM | IC50 [13]: 210 nM | IC50 [15]: 4400 nM | IC50 [16]: 6300 nM | IC50 [18]: 140 nM | IC50 [19]: 350 nM | IC50 [20]: 130 nM | beta t1/2 [22]: 2.3 h | half-life [23]: 1.38 h | Tmax [24]: 0.52 h | Cmax [25]: 8310 ng/mL | Cmax [26]: 3780 ng/mL | AUC(0-t) at 24 h [27]: 1580 ng·h/mL | AUC(0-t) at 24 h [28]: 5020 ng·h/mL | AUC [29]: 1605 ng·h/mL | AUC [30]: 5042 ng·h/mL | IC50 [36]: 0.23 nM | IC50 [37]: 172 nM
Compound: COc1ncc(-c2cc(OCCCCCCC(=O)Nc3ccccc3N)c3ncnc(C)c3c2)cc1NS(=O)(=O)c1ccc(F)cc1F
IC50 [12]: 40 nM | IC50 [14]: 5400 nM | IC50 [17]: 5400 nM | IC50 [21]: 560 nM | inhibition in vivo at 10 mg/kg [31]: 53.6% | inhibition in vivo at 20 mg/kg [32]: 75% | inhibition in vivo at 60 mg/kg [33]: 53.6% | Activity [34]: Non-Toxic | Activity [35]: Non-Toxic

IC50 [1]: 320 nM | IC50 [13]: 1300 nM | IC50 [15]: > 10000 nM | IC50 [16]: 6900 nM | IC50 [18]: > 10000 nM | IC50 [19]: 500 nM | IC50 [20]: 1500 nM
Compound: Nc1ccc(F)cc1NC(=O)c1ccc(CNC(=O)/C=C/c2cccnc2)cc1
IC50 [12]: 1900 nM | IC50 [14]: 4300 nM | IC50 [17]: 2100 nM | IC50 [21]: 5200 nM

IC50 [1]: 30 nM | IC50 [36]: 0.23 nM | IC50 [37]: 4710 nM
Compound: COc1ncc(-c2cc(OCCCC(=O)Nc3ccccc3N)c3ncnc(C)c3c2)cc1NS(=O)(=O)c1ccc(F)cc1F

IC50 [1]: 10 nM | IC50 [36]: 0.21 nM | IC50 [37]: 1310 nM
Compound: COc1ncc(-c2cc(OCCCCCC(=O)Nc3ccccc3N)c3ncnc(C)c3c2)cc1NS(=O)(=O)c1ccc(F)cc1F

IC50 [1]: 560 nM | IC50 [13]: 1200 nM | IC50 [15]: 5400 nM | IC50 [16]: 990 nM | IC50 [18]: 370 nM | IC50 [19]: 810 nM | IC50 [20]: 4800 nM
Compound: Nc1cc(C(F)(F)F)c(-c2cc(N3CCOCC3)nc(N3CCOCC3)n2)cn1 [BUPARLISIB]
IC50 [12]: 750 nM | IC50 [14]: 1400 nM | IC50 [17]: 1500 nM | IC50 [21]: 860 nM

IC50 [1]: 10 nM | IC50 [36]: 0.39 nM | IC50 [37]: 253 nM
Compound: COc1ncc(-c2cc(OCCCCCCCCC(=O)Nc3ccccc3N)c3ncnc(C)c3c2)cc1NS(=O)(=O)c1ccc(F)cc1F

IC50 [20]: 800 nM
Compound: O=C(CCCCCCC(=O)Nc1ccccc1)NO [VORINOSTAT]

IC50 [1]: 60 nM | IC50 [36]: 0.4 nM | IC50 [37]: 3030 nM
Compound: COc1ncc(-c2cc(OCCCCCCCCCC(=O)Nc3ccccc3N)c3ncnc(C)c3c2)cc1NS(=O)(=O)c1ccc(F)cc1F
